The target in this experiment is T1, PPARα (Homo sapiens, UniProt Q07869).
T1 construct: gene PPARA
T1 sequence (Q07869 200-468 limits assumed): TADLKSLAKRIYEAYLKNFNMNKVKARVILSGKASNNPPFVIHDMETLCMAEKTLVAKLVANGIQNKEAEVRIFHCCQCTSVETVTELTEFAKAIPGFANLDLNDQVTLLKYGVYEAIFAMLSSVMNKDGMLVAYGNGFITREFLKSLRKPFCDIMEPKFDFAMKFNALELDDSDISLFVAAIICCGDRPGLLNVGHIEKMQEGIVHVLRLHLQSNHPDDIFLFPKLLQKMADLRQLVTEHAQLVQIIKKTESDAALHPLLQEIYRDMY
Briefly: ITC (KD […]; WT in the mutant comparison […]); SPR KD […]; CETSA and DARTS in HepG2 lysates. The format is binding.

The results in this text go back to publication PMC10687582, “Herpetrione, a New Type of PPARα Ligand as a Therapeutic Strategy Against Nonalcoholic Steatohepatitis” (Research, 2023).

Take `COc1cc(C(=O)C(CO)c2cc(C3OCC4C(c5ccc(O)c(OC)c5)OCC34)cc(OC)c2O)ccc1O` (stereo not shown) [herpetrione]: binding was put at a Kd of 3.27 µM.
